Results as given in patent publication US11051514B2, “Antifungal compounds” (Mycovia Pharmaceuticals, Inc., priority 2015, dated 2021).

How the values were obtained:
[1] = system: Septoria tritici (SEPTTR); assay: Evaluation of fungicidal activity: leaf blotch of wheat, disease control on wheat seedlings; assay type: in vivo; conditions: for 3DC % control / 3DP % Control: wheat (variety Yuma) seedlings; for fungicidal activity against the fungi responsible for leaf blotch of wheat (Septoria tritici): in comparison with example 5 of U.S. Pat. No. 8,748,461
Procedure: Example 3: Evaluation of Fungicidal Activity: Leaf Blotch of Wheat (Mycosphaerella graminicola; Anamorph: Septoria tritici; Bayer code […]) Technical grades of materials were dissolved in acetone, which were then mixed with nine volumes of water containing 110 ppm Triton X-100. The fungicide solutions were applied onto wheat seedlings using an automated booth sprayer to run-off. All sprayed plants were allowed to air dry prior to further handling. Wheat plants (variety Yuma) were grown from seed in a greenhouse in 50% mineral soil/50% soil-less Metro mix until the first leaf was fully emerged, with 7-10 seedlings per pot. These plants were inoculated with an aqueous spore suspension of Septoria tritici either prior to or after fungicide treatments. After inoculation the plants were kept in 100% relative humidity (one day in a dark dew chamber followed by two to three days in a lighted dew chamber at 20° C.) to permit spores to germinate and infect the leaf. The plants were then transferred to a greenhouse set at 20° C. for disease to develop. When disease symptoms were fully expressed on the 1st leaves of untreated plants, infection levels were assessed on a scale of 0 to 100 percent disease severity. Percent disease control was calculated using the ratio of disease severity on treated plants relative to untreated plants.

[2] = Thermodynamic water solubility; assay type: physicochemical
[3] = Log D partition coefficient, CHI method; assay type: physicochemical
Procedure: The Log D partition coefficient was measured using the CHI method.

N#Cc1ccc(Oc2ccc(C(F)(F)C(O)(Cn3cncn3)c3ccc(F)cc3F)nc2)cc1 (stereo not drawn) [Example 1, 4-((6-(2-(2,4-difluorophenyl)-1,1-difluoro-2-hydroxy-3-(1H-1,2,4-triazol-1-yl)propyl)pyridin-3-yl)oxy)benzonitrile]
3DC % control ([1]; 6.25 g/ha): 100% | 3DC % control ([1]; 25 g/ha): 100% | 3DC % control ([1]; 100 g/ha): 100% | 3DC % control ([1]; rate g/ha): 99% | 3DP % Control ([1]; 1.56 g/ha): 96% | 3DP % Control ([1]; 6.25 g/ha): 96% | 3DP % Control ([1]; 25 g/ha): 96% | 3DP % Control ([1]; 100 g/ha): 100% | fungicidal activity against the fungi responsible for leaf blotch of wheat (Septoria tritici) [1]: improved fungicidal activity | H2O solubility (ppm) (thermodynamic) [2]: 37.33 ppm | chromatographic logD [3]: 2.9

N#Cc1ccc(Oc2ccc(C(F)(F)C(O)(Cn3ncnc3S)c3ccc(F)cc3F)nc2)cc1 (stereo not drawn) [Example 2, 4-((6-(2-(2,4-difluorophenyl)-1,1-difluoro-2-hydroxy-3-(5-thioxo-4,5-dihydro-1H-1,2,4-triazol-1-yl)propyl)pyridin-3-yl)oxy)benzonitrile]
3DC % control ([1]; 6.25 g/ha): 94% | 3DC % control ([1]; 25 g/ha): 99% | 3DC % control ([1]; 100 g/ha): 100% | 3DC % control ([1]; rate g/ha): 80% | 3DP % Control ([1]; 1.56 g/ha): 94% | 3DP % Control ([1]; 6.25 g/ha): 98% | 3DP % Control ([1]; 25 g/ha): 100% | 3DP % Control ([1]; 100 g/ha): 100% | fungicidal activity against the fungi responsible for leaf blotch of wheat (Septoria tritici) [1]: improved fungicidal activity | H2O solubility (ppm) (thermodynamic) [2]: 23.04 ppm | chromatographic logD [3]: 2.83

N#Cc1ccc(Oc2ccc(C(F)(F)C(O)(Cn3cnnn3)c3ccc(F)cc3F)nc2)cc1 (stereo not drawn) [Example 5*, 4-(6-(2-(2,4-difluorophenyl)-1,1-difluoro-2-hydroxy-3-(1H-tetrazol-1-yl)propyl)pyridin-3-yloxy)benzonitile, reference compound]
3DC % control ([1]; 6.25 g/ha): 34% | 3DC % control ([1]; 25 g/ha): 47% | 3DC % control ([1]; 100 g/ha): 58% | 3DC % control ([1]; rate g/ha): 22% | 3DP % Control ([1]; 1.56 g/ha): 22% | 3DP % Control ([1]; 6.25 g/ha): 36% | 3DP % Control ([1]; 25 g/ha): 50% | 3DP % Control ([1]; 100 g/ha): 64% | H2O solubility (ppm) (thermodynamic) [2]: 28.39 ppm | chromatographic logD [3]: 3.02

OC(Cn1cncn1)(c1ccc(F)cc1F)C(F)(F)c1ccc(OCc2cccc(F)c2F)cn1 (stereo not drawn) [Example 45*, reference compound]
3DC % control ([1]; 6.25 g/ha): 86% | 3DC % control ([1]; 25 g/ha): 85% | 3DC % control ([1]; 100 g/ha): 86% | 3DC % control ([1]; rate g/ha): 78% | 3DP % Control ([1]; 1.56 g/ha): 58% | 3DP % Control ([1]; 6.25 g/ha): 89% | 3DP % Control ([1]; 25 g/ha): 93% | 3DP % Control ([1]; 100 g/ha): 95% | H2O solubility (ppm) (thermodynamic) [2]: 5.15 ppm | chromatographic logD [3]: 3.32
